Numbers after ± are expanded uncertainties.
Details: 303.15 K; 101.33 kPa; Liquid; Vibrating tube method

`O=S1(=O)CCCC1` [sulfolane] showed a mass density of 1265.75 ± 0.45 kg/m3.
In the case of `NCCO.O=CO` [2-hydroxyethylammonium formate], the mass density is reported as 1184.46 ± 1.2 kg/m3.
For `CCCCCCCCCC` [decane], the mass density was 722.439 ± 0.28 kg/m3.
Compound `Cc1ccccc1` [toluene] has a mass density of 857.606 ± 0.18 kg/m3.
For `OCC(O)CO` [glycerol], the mass density was 1257.13 ± 0.25 kg/m3.

From the NIST ThermoML archive (doi:10.1016/j.fluid.2015.06.016)
